According to ChEMBL document CHEMBL1201862, “PubChem BioAssay data set” (2004):
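Step 1: Grow cells in 96-well plates. Step 2: Expose to compound for 48 hours at 5 concentrations. Step 3: Interpolate endpoints linearly; if unreached, use highest concentration. Here, GI50 denotes the concentration required for 50% inhibition of growth.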 Activity calls are given as the source filed them. Rule as the data show it: active = GI50 up to about 1.1 µM and inactive = higher.

Columns and labels:
Experiment in all cases: DTP human tumour cell line panel, 48 h
NCI/ADR-RES = test system: NCI/ADR-RES
PC-3 = test system: PC-3
SW-620 = test system: SW-620
SF-295 = test system: SF-295
SNB-75 = test system: SNB-75
SF-268 = test system: SF-268
CCRF-CEM = test system: CCRF-CEM
HCT-15 = test system: HCT-15
UACC-257 = test system: UACC-257
DU-145 = test system: DU-145
OVCAR-4 = test system: OVCAR-4
BT-549 = test system: BT-549
U-251 = test system: U-251
HCT-116 = test system: HCT-116
T47D = test system: T47D
UO-31 = test system: UO-31
HOP-92 = test system: HOP-92
SF-539 = test system: SF-539
SNB-19 = test system: SNB-19
SR = test system: SR

SMILES | GI50 (NCI/ADR-RES) | GI50 (PC-3) | GI50 (SW-620) | GI50 (SF-295) | GI50 (SNB-75) | GI50 (SF-268) | GI50 (CCRF-CEM) | GI50 (HCT-15) | GI50 (UACC-257) | GI50 (DU-145) | GI50 (OVCAR-4) | GI50 (BT-549) | GI50 (U-251) | GI50 (HCT-116) | GI50 (T47D) | GI50 (UO-31) | GI50 (HOP-92) | GI50 (SF-539) | GI50 (SNB-19) | GI50 (SR)
O=C1Nc2ccccc2/C1=C\c1c(-c2ccccc2)nc2n1CCS2 | 23.1 µM (inactive) | 19.1 µM (inactive) | 29.3 µM (inactive) | 17.3 µM (inactive) | 12.1 µM (inactive) | 26.5 µM (inactive) | 24.7 µM (inactive) | 18.6 µM | 19.5 µM (inactive) | 13.6 µM (inactive) | 29 µM (inactive) | 20 µM (inactive) | 20.5 µM (inactive) | 20.8 µM (inactive) | 18.7 µM (inactive) | 5.68 µM (inactive) | 39.3 µM (inactive) | 18.7 µM (inactive) | 28.5 µM (inactive) | 
CCOC(=O)/C(C(=O)Nc1cccc(C(F)(F)F)c1)=C(/N)N1CCCC1 | > 100 µM (inactive) | > 100 µM (inactive) | > 100 µM (inactive) | 42.2 µM (inactive) | 23.4 µM (inactive) | 54.3 µM (inactive) | > 100 µM (inactive) | > 100 µM | > 100 µM (inactive) | > 100 µM (inactive) | > 100 µM (inactive) | > 100 µM (inactive) | 76.9 µM (inactive) | > 100 µM (inactive) | 47.8 µM (inactive) |  |  | 20.1 µM (inactive) | > 100 µM (inactive) | 
COc1c(-c2nc3ccc(N4CCN(C)CC4)nc3[nH]2)cc(OC)c2[nH]c(CO)nc12 | > 100 µM (inactive) |  | > 100 µM (inactive) | > 100 µM (inactive) | 95.5 µM (inactive) | 92.3 µM (inactive) |  | > 100 µM | > 100 µM (inactive) | > 100 µM (inactive) | 70 µM (inactive) | > 100 µM (inactive) | 29.6 µM (inactive) | 54.7 µM (inactive) | 37.1 µM (inactive) | > 100 µM (inactive) | > 100 µM (inactive) | 22.5 µM (inactive) | 42.6 µM (inactive) | > 100 µM (inactive)
Cc1ccc2cccc3c2c1CC1(C3=O)S(=O)(=O)OCCOS1(=O)=O | > 100 µM (inactive) | > 100 µM (inactive) | > 100 µM (inactive) | > 100 µM (inactive) | > 100 µM (inactive) | > 100 µM (inactive) | > 100 µM (inactive) | > 100 µM | > 100 µM (inactive) | > 100 µM (inactive) | > 100 µM (inactive) | > 100 µM (inactive) | > 100 µM (inactive) | > 100 µM (inactive) | > 100 µM (inactive) | > 100 µM (inactive) | > 100 µM (inactive) | > 100 µM (inactive) | > 100 µM (inactive) | 
N#Cc1ccccc1NC(=O)/C(=N\NC(=O)c1ccncc1)C(c1cnc2ccc([N+](=O)[O-])cc2n1)[N+](=O)[O-] (stereo unspecified) | > 100 µM (inactive) | > 100 µM (inactive) | > 100 µM (inactive) | > 100 µM (inactive) | > 100 µM (inactive) | > 100 µM (inactive) | 56.4 µM (inactive) | 78.3 µM | > 100 µM (inactive) |  | > 100 µM (inactive) | > 100 µM (inactive) | > 100 µM (inactive) | > 100 µM (inactive) | > 100 µM (inactive) | 32.1 µM (inactive) | 86.9 µM (inactive) | > 100 µM (inactive) |  | 
CC12CCC(/C(=N/c3cc(C(F)(F)F)cc(C(F)(F)F)c3)C1=O)C2(C)C (stereo unspecified) | 44.3 µM (inactive) | 27.5 µM (inactive) | 28.1 µM (inactive) | 41.9 µM (inactive) |  | 33.3 µM (inactive) | 0.453 µM (active) | 29.1 µM | 46.6 µM (inactive) | 40.6 µM (inactive) | 44 µM (inactive) | 32.5 µM (inactive) | 35.4 µM (inactive) | 27.7 µM (inactive) | 19.8 µM (inactive) | 52 µM (inactive) |  | 22.9 µM (inactive) | 49.4 µM (inactive) | 18.8 µM (inactive)
COc1ccc(-c2cc(O)c3nc4ccccc4n3c2)cc1 | > 100 µM (inactive) | > 100 µM (inactive) | > 100 µM (inactive) | > 100 µM (inactive) | > 100 µM (inactive) | > 100 µM (inactive) | > 100 µM (inactive) | > 100 µM | > 100 µM (inactive) | > 100 µM (inactive) | > 100 µM (inactive) | > 100 µM (inactive) | > 100 µM (inactive) | > 100 µM (inactive) |  | > 100 µM (inactive) | > 100 µM (inactive) | > 100 µM (inactive) | > 100 µM (inactive) | > 100 µM (inactive)
Cc1ccc(C(=C2Sc3ccccc3S2)C(=C2Sc3ccccc3S2)c2ccc(C)s2)s1 | > 100 µM (inactive) | > 100 µM (inactive) | > 100 µM (inactive) | > 100 µM (inactive) | > 100 µM (inactive) | > 100 µM (inactive) | > 100 µM (inactive) | > 100 µM | > 100 µM (inactive) | > 100 µM (inactive) | > 100 µM (inactive) | > 100 µM (inactive) | > 100 µM (inactive) | > 100 µM (inactive) | > 100 µM (inactive) | > 100 µM (inactive) |  |  | > 100 µM (inactive) | 47.5 µM (inactive)
CC1(C)Oc2ccc3c(=O)cc(-c4ccccc4)oc3c2C1C(=O)O (stereo unspecified) | > 100 µM (inactive) | > 100 µM (inactive) |  | > 100 µM (inactive) |  | > 100 µM (inactive) | > 100 µM (inactive) | > 100 µM | > 100 µM (inactive) | > 100 µM (inactive) | > 100 µM (inactive) | > 100 µM (inactive) | > 100 µM (inactive) | > 100 µM (inactive) | > 100 µM (inactive) |  |  | > 100 µM (inactive) |  | > 100 µM (inactive)
O=C1N/C(=N/N=C/c2cccs2)N/C1=C\c1ccco1 | 66.4 µM (inactive) | 18.9 µM (inactive) | 30.4 µM (inactive) | 94.2 µM (inactive) | 84.7 µM (inactive) | 19.8 µM (inactive) | 12 µM (inactive) | > 100 µM | 55.7 µM (inactive) | > 100 µM (inactive) | > 100 µM (inactive) | 70 µM (inactive) | 23.5 µM (inactive) | 35.5 µM (inactive) | > 100 µM (inactive) | > 100 µM (inactive) | > 100 µM (inactive) | 28.9 µM (inactive) | 81.5 µM (inactive) | 
Cc1cc2ccccc2n2c1nc1ccc(O)cc12 | > 10 µM (inactive) | > 10 µM (inactive) | > 10 µM (inactive) | > 10 µM (inactive) | 5 µM (inactive) | > 10 µM (inactive) | > 10 µM (inactive) | > 10 µM | > 10 µM (inactive) | > 10 µM (inactive) | > 10 µM (inactive) | > 10 µM (inactive) | 7.71 µM (inactive) | > 10 µM (inactive) | > 10 µM (inactive) |  |  | > 10 µM (inactive) | > 10 µM (inactive) | 9.73 µM (inactive)
NC1CC(=O)c2csc(Cl)c21 (stereo unspecified) | 27 µM (inactive) | 10.1 µM (inactive) | 2.05 µM (inactive) | 17.1 µM (inactive) | 17.3 µM (inactive) | 10.1 µM (inactive) | 0.778 µM (active) | 5.41 µM | 14.9 µM (inactive) | 8.11 µM (inactive) | 25.9 µM (inactive) | 17.7 µM (inactive) | 8.51 µM (inactive) | 3.86 µM (inactive) | 3.98 µM (inactive) | 5.75 µM (inactive) | 4.46 µM (inactive) | 2.23 µM (inactive) | 17.5 µM (inactive) | 
CN(C)CC1CCC(CN(C)C)C(=O)C1=O (stereo unspecified) |  | 16.7 µM (inactive) | 1.83 µM (inactive) | 16.6 µM (inactive) | 14.7 µM (inactive) | 6.75 µM (inactive) | 1.73 µM (inactive) | 3 µM | 2.4 µM (inactive) | 16.5 µM (inactive) | 7.8 µM (inactive) | 8.67 µM (inactive) | 12.7 µM (inactive) | 2.4 µM (inactive) | 2.31 µM (inactive) | 3.48 µM (inactive) | 1.99 µM (inactive) | 7.18 µM (inactive) | 17.7 µM (inactive) | 2.09 µM (inactive)
CC(O[Si](C)(C)C(C)(C)C)[C@H](NC(=O)OCC(Cl)(Cl)Cl)C(=O)O (stereo partly specified) | > 100 µM (inactive) | > 100 µM (inactive) | > 100 µM (inactive) | 51.2 µM (inactive) |  | > 100 µM (inactive) | > 100 µM (inactive) | > 100 µM | > 100 µM (inactive) | > 100 µM (inactive) | > 100 µM (inactive) | > 100 µM (inactive) | > 100 µM (inactive) | > 100 µM (inactive) | > 100 µM (inactive) | > 100 µM (inactive) |  | > 100 µM (inactive) | > 100 µM (inactive) | > 100 µM (inactive)
CC[C@H](C)C(=O)O[C@H]1CCC=C2C=C[C@H](C)[C@H](CC[C@@H]3C[C@@H](O)CC(=O)O3)[C@H]21 [MEVASTATIN] | 10.3 µM (inactive) | 2.26 µM (inactive) | 24.7 µM (inactive) | 3.27 µM (inactive) | 2.07 µM (inactive) | 7.31 µM (inactive) |  | 4.06 µM | 50.4 µM (inactive) | > 92.3 µM (inactive) | 43.1 µM (inactive) | 4.75 µM (inactive) | 3.62 µM (inactive) | 17.1 µM (inactive) | > 82.8 µM (inactive) | 9.06 µM (inactive) |  | 7.35 µM (inactive) | 16.4 µM (inactive) | 8.73 µM (inactive)
